According to US9732094B2, “Arylquinazolines” (Merck Patent GmbH, priority 2013, dated 2017):
Read-outs that look alike come from different tables or passages of the source.

Legend:
[1] = target: DNA-PK phosphorylation at serine 2056 (Homo sapiens (Human), UniProt P78527); test: DNA-PK phosphorylation at serine 2056 (cellular), bleomycin-treated HCT116 cells, ELISA; assay type: cell-based; conditions: cellular; HCT116 cells, 10 μM bleomycin, six hours; read-out: IC50 pDNA-PK
Outline: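 Test compounds and bleomycin (10 μM) are added to adherent HCT116 cells for 6 h. Detection uses an HRP-based chemiluminescent ELISA, with phospho-DNA-PK signals standardised to total protein.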

[2] = target: Kv11.1 (hERG) (Homo sapiens (Human), UniProt Q12809); test: Kv11.1 (hERG) ion channel activity (patch clamp assay), HEK293 cells transfected with hERG gene; conditions: patch clamp, HEK293 transfected with hERG gene
Kv11.1 (hERG), sequence (Q12809 whole entry): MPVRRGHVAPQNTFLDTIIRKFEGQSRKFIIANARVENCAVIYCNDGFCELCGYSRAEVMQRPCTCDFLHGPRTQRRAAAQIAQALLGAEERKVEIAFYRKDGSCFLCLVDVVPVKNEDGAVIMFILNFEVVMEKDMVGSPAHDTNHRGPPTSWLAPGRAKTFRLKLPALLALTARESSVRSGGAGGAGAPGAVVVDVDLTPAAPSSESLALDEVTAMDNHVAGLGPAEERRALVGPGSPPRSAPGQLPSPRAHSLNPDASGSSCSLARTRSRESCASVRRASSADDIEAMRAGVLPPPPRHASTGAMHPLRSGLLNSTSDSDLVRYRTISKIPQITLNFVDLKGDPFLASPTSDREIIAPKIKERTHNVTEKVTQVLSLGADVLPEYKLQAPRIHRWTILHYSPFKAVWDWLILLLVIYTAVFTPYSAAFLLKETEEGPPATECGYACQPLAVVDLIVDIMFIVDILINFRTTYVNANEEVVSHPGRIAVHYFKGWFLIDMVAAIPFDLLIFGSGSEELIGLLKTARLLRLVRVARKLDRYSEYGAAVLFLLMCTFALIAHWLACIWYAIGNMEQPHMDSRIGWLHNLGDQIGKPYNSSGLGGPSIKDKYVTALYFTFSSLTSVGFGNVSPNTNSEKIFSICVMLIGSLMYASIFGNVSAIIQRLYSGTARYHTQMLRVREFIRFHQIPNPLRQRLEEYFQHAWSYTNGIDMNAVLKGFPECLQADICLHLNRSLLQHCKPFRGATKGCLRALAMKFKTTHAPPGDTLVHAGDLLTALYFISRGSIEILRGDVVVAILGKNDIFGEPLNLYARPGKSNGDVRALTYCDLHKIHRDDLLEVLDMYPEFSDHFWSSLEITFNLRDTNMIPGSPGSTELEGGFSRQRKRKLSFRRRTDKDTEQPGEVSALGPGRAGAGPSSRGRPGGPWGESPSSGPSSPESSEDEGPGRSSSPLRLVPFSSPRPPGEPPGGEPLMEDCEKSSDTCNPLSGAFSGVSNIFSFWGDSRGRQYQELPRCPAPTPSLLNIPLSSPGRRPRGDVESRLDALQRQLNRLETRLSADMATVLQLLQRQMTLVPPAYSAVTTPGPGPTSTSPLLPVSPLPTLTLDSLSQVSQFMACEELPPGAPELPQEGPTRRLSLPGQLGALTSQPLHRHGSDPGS

[3] = target: DNA-PK (Homo sapiens (Human), UniProt P78527); test: DNA-PK assay (biochemical), flashplate 33P-ATP kinase assay; conditions: enzymatic; 5 μM ATP
Outline: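 Reactions ran in streptavidin-coated flashplates and were halted by 200 mM EDTA, with a further 30 min at room temperature before saline washing.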

SMILES	IC50 [1] [nM]	Ki ([2]; Ki [Kv1.11 hERG]) [nM]	IC50 [3] [nM]	Ki ([2]; read-out: Ki [Kv1.11 hERG]) [nM]
COc1nccnc1C(O)c1ccc(F)c(-c2ncnc3cc(N4CCOCC4)ccc23)c1 (stereo not drawn) [Example 15, [4-Fluoro-3-(7-morpholin-4-yl-quinazolin-4-yl)phenyl]-(3-methoxy-pyrazin-2-yl)methanol]	< 500	15000 to 25000	< 3	–
COc1nccnc1C(O)c1ccc(F)c(-c2ncnc3cc(N4CCOCC4)ccc23)c1 (stereo not drawn) [Example 16, [4-Fluoro-3-(7-morpholin-4-yl-quinazolin-4-yl)phenyl]-(3-methoxy-pyrazin-2-yl)methanol]	500 to 5000	–	7 to 30	> 25000
OC(c1ccc(F)c(-c2ncnc3cc(N4CCOCC4)ccc23)c1)c1c(Cl)cncc1Cl (stereo not drawn) [Example 17, (3,5-Dichloro-pyridin-4-yl)-[4-Fluoro-3-(7-morpholin-4-yl-quinazolin-4-yl)phenyl]-methanol]	500 to 5000	10000 to 15000	3 to 7	–
COc1ccnnc1C(O)c1ccc(F)c(-c2ncnc3cc(N4CCOCC4)ccc23)c1 (stereo not drawn) [Example 18, [4-Fluoro-3-(7-morpholin-4-yl-quinazolin-4-yl)phenyl]-(4-methoxy-pyridazin-3-yl)methanol]	500 to 5000	15000 to 25000	< 3	–
COc1cnc(Cl)c(C(O)c2ccc(F)c(-c3ncnc4cc(N5CCOCC5)ccc34)c2)c1 (stereo not drawn) [Example 22, (2-Chloro-5-methoxy-pyridin-3-yl)-[4-fluoro-3-(7-morpholin-4-yl-quinazolin-4-yl)phenyl]-methanol]	< 500	–	< 3	< 10000
COc1ncc(Cl)nc1C(O)c1ccc(F)c(-c2ncnc3cc(N4CCOCC4)ccc23)c1 (stereo not drawn) [Example 25, (6-Chloro-3-methoxy-pyrazin-2-yl)-[4-fluoro-3-(7-morpholin-4-yl-quinazolin-4-yl)phenyl]-methanol]	< 500	–	3 to 7	< 10000
COc1cnc(Cl)c(C(O)c2ccc(F)c(-c3ncnc4cc(N5CCOCC5)ccc34)c2)n1 (stereo not drawn) [Example 26, (3-Chloro-6-methoxy-pyrazin-2-yl)-[4-fluoro-3-(7-morpholin-4-yl-quinazolin-4-yl)phenyl]-methanol]	< 500	–	< 3	> 25000
O[C@H](c1ccc(F)c(-c2ncnc3cc(N4CCOCC4)ccc23)c1)c1nccnc1Cl [Example 27, (R)-(3-Chloro-pyrazin-2-yl)-[4-fluoro-3-(7-morpholin-4-yl-quinazolin-4-yl)phenyl]-methanol]	< 500	–	< 3	> 25000
O[C@@H](c1ccc(F)c(-c2ncnc3cc(N4CCOCC4)ccc23)c1)c1nccnc1Cl [Example 28, (S)-(3-Chloro-pyrazin-2-yl)-[4-fluoro-3-(7-morpholin-4-yl-quinazolin-4-yl)phenyl]-methanol]	5000 to 10000	15000 to 25000	7 to 30	–
COc1cnc(C(O)c2ccc(F)c(-c3ncnc4cc(N5CCOCC5)ccc34)c2)c(Cl)c1 (stereo not drawn) [Example 31, (3-Chloro-5-methoxy-pyridin-2-yl)-[4-fluoro-3-(7-morpholin-4-yl-quinazolin-4-yl)phenyl]-methanol]	< 500	10000 to 15000	< 3	–
OC(c1ccc(F)c(-c2ncnc3cc(N4CCOCC4)ccc23)c1)c1nccnc1OC1COC1 (stereo not drawn) [Example 32, [4-fluoro-3-(7-morpholin-4-yl-quinazolin-4-yl)phenyl]-[3-(oxetan-3-yloxy)-pyrazin-2-yl]methanol]	5000 to 10000	15000 to 25000	7 to 30	–
OC(c1ccc(F)c(-c2ncnc3cc(N4CCOCC4)ccc23)c1)c1cnccn1 (stereo not drawn) [Example 33, [4-Fluoro-3-(7-morpholin-4-yl-quinazolin-4-yl)phenyl]-pyrazin-2-ylmethanol]	10000 to 30000	–	7 to 30	< 10000
OC(c1cnccn1)c1cc(-c2ncnc3cc(N4CCOCC4)ccc23)c(F)cc1Cl (stereo not drawn) [Example 34, [2-Chloro-4-fluoro-5-(7-morpholin-4-yl-quinazolin-4-yl)phenyl]-pyrazin-2-ylmethanol]	5000 to 10000	15000 to 25000	7 to 30	–
OC(c1ccc(F)c(-c2ncnc3cc(N4CCOCC4)ccc23)c1)c1nc(Cl)cnc1Cl (stereo not drawn) [Example 35, (3,6-Dichloro-pyrazin-2-yl)-[4-fluoro-3-(7-morpholin-4-yl-quinazolin-4-yl)phenyl]-methanol]	< 500	10000 to 15000	< 3	–
OC(c1ccnnc1)c1cc(-c2ncnc3cc(N4CCOCC4)ccc23)c(F)cc1Cl (stereo not drawn) [Example 36, [2-Chloro-4-fluoro-5-(7-morpholin-4-yl-quinazolin-4-yl)phenyl]-pyridazin-4-ylmethanol]	< 500	–	< 3	> 25000
OC(c1ccc(F)c(-c2ncnc3cc(N4CCOCC4)sc23)c1)c1nccnc1Cl (stereo not drawn) [Example 37, (3-Chloropyrazin-2-yl)-[4-fluoro-3-(6-morpholin-4-ylthieno[3,2-d]pyrimidin-4-yl)phenyl]-methanol]	< 500	10000 to 15000	< 3	–
COc1nccnc1C(O)c1ccc(F)c(-c2ncnc3cc(N4CCOCC4)ccc23)c1 (stereo not drawn) [Example 38, [4-Fluoro-3-(7-morpholin-4-yl-quinazolin-4-yl)phenyl]-(3-methoxy-pyrazin-2-yl)methanol]	< 500	–	< 3	> 25000
OC(c1ccn2nccc2n1)c1cc(-c2ncnc3cc(N4CCOCC4)ccc23)c(F)cc1Cl (stereo not drawn) [Example 39, [2-Chloro-4-fluoro-5-(7-morpholin-4-yl-quinazolin-4-yl)phenyl]-pyrazolo[1,5-a]-pyrimidin-5-ylmethanol]	< 500	15000 to 25000	3 to 7	–
COc1nnc(C(O)c2cc(-c3ncnc4cc(N5CCOCC5)ccc34)c(F)cc2Cl)c2ccncc12 (stereo not drawn) [Example 40, [2-Chloro-4-fluoro-5-(7-morpholin-4-yl-quinazolin-4-yl)phenyl]-(4-methoxypyrido-[3,4-d}pyridazin-1-yl)-methanol]	500 to 5000	10000 to 15000	7 to 30	–
OC(c1ccc(Cl)nn1)c1cc(-c2ncnc3cc(N4CCOCC4)ccc23)c(F)cc1Cl (stereo not drawn) [Example 41, [2-Chloro-4-fluoro-5-(7-morpholin-4-yl-quinazolin-4-yl)phenyl]-(6-chloro-pyridazin-3-yl)methanol]	< 500	15000 to 25000	3 to 7	–
OC(c1ccc(F)c(-c2ncnc3cc(N4CCOCC4)ccc23)c1)c1ncccc1Cl (stereo not drawn) [Example 42, (3-Chloro-pyridin-2-yl)-[4-fluoro-3-(7-morpholin-4-yl-quinazolin-4-yl)phenyl]-methanol]	< 500	15000 to 25000	< 3	–
CNC(=O)c1ccc(C(O)c2cc(-c3ncnc4cc(N5CCOCC5)ccc34)c(F)cc2Cl)nn1 (stereo not drawn) [Example 43, 6-{[2-Chloro-4-fluoro-5-(7-morpholin-4-yl-quinazolin-4-yl)phenyl]-hydroxymethyl}-pyridazine-3-carboxylic acid methylamide]	500 to 5000	–	3 to 7	> 25000
Cc1cnnc(C(O)c2cc(-c3ncnc4cc(N5CCOCC5)ccc34)c(F)cc2Cl)c1 (stereo not drawn) [Example 46, [2-Chloro-4-fluoro-5-(7-morpholin-4-yl-quinazolin-4-yl)phenyl]-(5-methylpyridazin-3-yl)methanol]	5000 to 10000	15000 to 25000	7 to 30	–
